According to US7939098B2, “Compositions and method for transmucosal drug delivery and cryoprotection” (Femina Pharma Incorporated, priority 2002, dated 2011):

Legend:
[1] = test system: porcine buccal mucosa; experiment: Transepithelial transport of [3H]water across porcine buccal mucosa in vitro, continuous flow apparatus; type: in vitro ADME
Experimental: (§1) Porcine buccal and nasal mucosa (lateral) was obtained at slaughter and utilized within 3 hours of harvest. Tissue samples approximately 8 mm in diameter were mounted between two halves of through-flow mucosal perfusion cells exposing an area of epithelial surface approximately 0.20 cm^2 for transepithelial transport. The chambers were mounted on water-jacketed blocks maintained at 37° C. During the set up period, the exposed epithelial surface was kept moist with phosphate buffered saline (PBS, 0.01M, pH 7.4). The buffer solution was removed by vacuum immediately prior to application of labeled test compound. […] In the receiver compartment, PBS was continuously pumped through the lower chamber (i.e., blood compartment) as a collection fluid at rate of 1.8 mL/hr, which was previously determined to be sufficient to maintain sink conditions in the receiver compartment. This fluid was collected into scintillation vials for 1 or 2 hour intervals over the entire collection period and radioactivity was determined by liquid scintillation counter. Transepithelial flux of the marker solute in the presence of various concentrations of permeation enhancers was calculated at each sampling interval from the relationship: Flux=Q/At where Q is the finite quantity of solute traversing the tissue barrier (dpm) in time t (min); A is the area of epithelial surface exposed in cm^2. […]

[2] = test system: porcine nasal mucosa; experiment: Transepithelial transport of [3H]water across porcine nasal mucosa in vitro, continuous flow apparatus; type: in vitro ADME
Experimental: as §1

[3] = test system: healthy female rabbits; conditions: rabbit, in vivo
Experimental: A 10 day, repeat dose, vaginal toxicity study was conducted in healthy female rabbits. Three doses and two controls were used. […] Doses of SUPPOCIRE® and SUPPOCIRE® plus ethoxydiglycol were used as controls. The study findings are summarized below.

[4] = essentially the same amount as i.v.; cited from earlier work

SMILES | increase of mean steady state Kp as compared to control ([1]; 30% (v/v) TRANSCUTOL versus control) [%] | mean steady state Kp of [3H]water ([1]; in the presence of 30% (v/v) TRANSCUTOL, n=7) | increase of mean steady state Kp compared to control PBS ([2]; 15% (v/v) TRANSCUTOL versus control PBS) [%] | mean steady state Kp of [3H]water ([2]; in the presence of 15% (v/v) TRANSCUTOL, n=7) | NOEL ([3]; female, 10 days) [mg/3 kg rabbit dose] | NOEL, equivalent human dose ([3]; female, 10 days) [mg] | finding on cervix or uterus [3] | one-time human dose extrapolated to be safe [3] [mg] | systemic side effects [3] | systemic level after oral administration compared to i.v. administration [4]
CCOCCOCCO [TRANSCUTOL®, diethyleneglycol monoethyl ether] | ~25 | 1.11±0.01×10^−3 cm/min | ~37 | 1.83±0.02×10^−3 cm/min |  |  |  |  |  | 
NCCCC(O)(P(=O)(O)O)P(=O)(O)O [alendronate] |  |  |  |  | 0.013 | 0.3 | No erythema, inflammation or erosion | 10 | no systemic side effects | below 1%
